Measurements taken from patent US6861524B2, “Acyl and sulfonyl derivatives of 6,9-disubstituted 2-(trans-1,4-diaminocyclohexyl)-purines and their use as antiproliferative agents” (Aventis Pharmaceuticals Inc., priority 2000, dated 2005).
Several values for one entry are separate records, joined by “and”; a condition that tells them apart may be missing. Identical values can stand only once. Counter-ions that a name gives are not always drawn.

Columns and labels:
cdk4/cyclin D1 = cdk4/cyclin D1 (Homo sapiens, UniProt P11802); test: Cyclin-dependent kinase assay, cdk4/cyclin D1 (GST-pRb substrate); assay type: biochemical; settings: inhibition of cyclin D1/CDK 4 enzyme activity
[1] = Red blood cell binding (RBC to plasma ratio), mouse whole blood; assay type: in vitro ADME; settings: 30 minutes at 37° C., nominal 500 ng/ml
Experimental: (§1) Compounds, including one positive control, are assessed for red blood cell (RBC) uptake, using a modified procedure based on the protocol reported in Sun, J. X. S., et al. High-performance liquid chromatographic analysis, plasma protein binding and red blood cell partitioning of phenprobamate. Biopharmaceutics and Drug Disposition, 8 (1987) 341-351.
(§2) Briefly, RBC uptake is evaluated by comparison of the levels in spiked plasma (n=3) and plasma isolated from spiked whole blood (n=3). Compounds are incubated with human and mouse whole blood, respectively, for 30 minutes at 37° C. using a nominal concentration of 500 ng/ml. Following centrifugation, the plasma is removed and submitted for analysis. Each compound is also spiked into blank plasma at a nominal concentration of 500 ng/ml, and submitted for analysis. Levels in the two plasma samples (Cp′ and Cp in the equation below) and the blood hematocrit are used to determine the red blood cell to plasma ratio (Crbc/Cp). [formula] In equation 1, Cp′ is the level of drug in the spiked “blank” plasma, Cp is the level of drug in the plasma of spiked whole blood, and H is the hematocrit. The hematocrit values are determined as 0.4 for human whole blood and 0.41 for mouse whole blood. The samples are analyzed with ESI LC/MS, using positive ion detection with an internal standard.
(§3) The red blood cell to plasma ratio is determined for each compound using equation 1. Tables 6 and 7 summarize the respective mean Crbc/Cp values and standard deviations for mouse and human whole blood, respectively, in descending order based on the red blood cell to plasma ratio, where “*” denotes Positive Control, and “ND” denotes Not Determined. MDL 108552 is included as a positive control for red blood cell uptake.

[2] = Plasma pharmacokinetics in mice after single intravenous cassette doses; settings: mice; for Mean concentration in plasma: single 18 mg/kg intravenous cassette dose (Cassette #1)
Experimental: Male mice are given single intravenous cassette doses of CDK inhibitor compounds.
A single intravenous cassette dose (18 or 15 mg/kg free base) is administered. For each compound, this is equivalent to a dose of approx. 3 mg/kg free base. […] The dose is administered at a volume of 10 ml/kg (total volume of approximately 0.25 ml/animal).
Male mice (Hsd:ICR (CD-1® SD®), Harlan), each weighing approximately 20-30 g at the start of the study. […] Water is available ad libitum throughout the study.
A single cassette dose of 5-6 compounds is administered by bolus injection into the tail vein over a 10-15-second period. […] Whole blood (approximately 0.6 ml/sample) is obtained by cardiac puncture and transferred to 3 ml glass tubes containing 45 U sodium heparin.
Sample Processing: Plasma: Whole blood is centrifuged at approximately 3,200 rpm for 10 min at approximately 5° C. and the plasma (approx. 0.3 ml/sample) is transferred to chilled plastic vials and stored at approx. −70° C. until bioanalysis.
Sample Analysis: Concentrations of each test article in plasma are quantitated by a non-validated method based on LC/MS using the following protocol.
Samples are removed from the freezer, allowed to thaw at room temperature, and vortexed to insure complete homogenization prior to sample manipulation. Samples are then prepared according to the following scheme: • 1. transfer 48 μL of plasma (blank mouse sample) into a 12×75 mm test tube. • 2. add 12 μL of working standard to the blank plasma for standard curve preparation. • 3. […] Inject 25 μL on LC/MS. Chromatographic Conditions:
Data Analysis: Concentrations of Compounds in plasma of individual animals are determined by bioanalytics. […] Statistical analyses are limited to simple expressions of variation (mean and standard deviation). The plasma AUC (area-under-curve) is determined by the linear trapezoidal rule. […] All PK parameters are determined by noncompartmental methods using WinNonlin version 3.0 (Pharsight Corp).
The following information is based on a graph of the semi-log of the plasma concentration in ng/ml versus collection time in hours. • “Cmax” represents the maximum plasma concentration. • “t1/2” represents the half-life of the compound. • “AUC0-∞” represents the calculated area under the curve. • “AUC % Extrap(obs.)” represents the extrapolated area under the curve. • “Cls” is the clearance rate.

[3] = Red blood cell binding (RBC to plasma ratio), human whole blood; assay type: in vitro ADME; settings: 30 minutes at 37° C., nominal 500 ng/ml
Experimental: as §1, §2, §3

[4] = Cassette #3, single 15 mg/kg iv cassette dose (3 mg/kg/compound), 24 h
[5] = Cassette #4, single 15 mg/kg iv cassette dose (3 mg/kg/compound), 8 h
[6] = Cassette #4, single 15 mg/kg iv cassette dose (3 mg/kg/compound), 24 h
[7] = 24 h, BLQ = below assay quantification limit (approx. 1 ng/ml)
[8] = Cassette #2, single 18 mg/kg iv cassette dose (3 mg/kg/compound), 24 h

Chain of cdk4/cyclin D1 (P11802 whole entry): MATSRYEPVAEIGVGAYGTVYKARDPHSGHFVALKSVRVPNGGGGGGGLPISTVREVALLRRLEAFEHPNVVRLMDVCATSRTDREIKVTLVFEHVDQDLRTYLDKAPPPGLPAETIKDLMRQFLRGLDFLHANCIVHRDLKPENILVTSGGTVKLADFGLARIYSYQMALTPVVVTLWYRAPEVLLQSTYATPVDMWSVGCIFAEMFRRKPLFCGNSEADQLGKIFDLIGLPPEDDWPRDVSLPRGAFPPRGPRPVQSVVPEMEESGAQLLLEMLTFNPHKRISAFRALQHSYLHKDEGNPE
Chain of cdk4/cyclin D1 (P24385 whole entry partner): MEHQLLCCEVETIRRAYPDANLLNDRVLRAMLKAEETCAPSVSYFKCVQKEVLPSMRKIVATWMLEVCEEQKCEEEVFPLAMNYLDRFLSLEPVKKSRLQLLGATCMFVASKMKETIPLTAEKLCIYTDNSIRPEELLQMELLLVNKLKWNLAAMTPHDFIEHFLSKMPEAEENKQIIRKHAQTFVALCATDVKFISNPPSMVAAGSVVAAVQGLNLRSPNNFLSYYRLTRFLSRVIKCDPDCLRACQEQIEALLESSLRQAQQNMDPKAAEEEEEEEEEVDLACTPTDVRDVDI

Compound: COc1cc(COC(=O)N2CCC(Nc3nc(N[C@H]4CC[C@H](N)CC4)nc4c3ncn4C3CCCC3)CC2)c([N+](=O)[O-])cc1OC [Compound 101, trans-4-[2-(4-Amino-cyclohexylamino)-9-cyclopentyl-9H-purin-6-ylamino]-piperidine-1-carboxylic acid 4,5-dimethoxy-2-nitro-benzyl ester dihydrochloride]
- IC50 (cdk4/cyclin D1): > 10 µM

Compound: Cl.Cl.N[C@H]1CC[C@H](Nc2nc(NC3CCN(C(=O)Nc4ccc(C(F)(F)F)cc4)CC3)c3ncn(C4CCCC4)c3n2)CC1 [Compound 149, trans-4-[2-(4-Amino-cyclohexylamino)-9-cyclopentyl-9H-purin-6-ylamino]-piperidine-1-carboxylic acid (4-trifluoromethyl-phenyl)-amide dihydrochloride]
- Mean Red Blood Cell to Plasma Ratio ([1]; hematocrit 0.41): 3.4
- Mean Conc. in plasma [2, 4]: BLQ
- Mean Red Blood Cell to Plasma Ratio [3]: 2.8

Compound: C=CCCOC(=O)N1CCC(Nc2nc(N[C@H]3CC[C@H](N)CC3)nc3c2ncn3C2CCCC2)CC1 [Compound 100, trans-4-[2-(4-Amino-cyclohexylamino)-9-cyclopentyl-9H-purin-6-ylamino]-piperidine-1-carboxylic acid but-3-enyl ester dihydrochloride]
- IC50 (cdk4/cyclin D1): > 10 µM

Compound: Cl.Cl.N[C@H]1CC[C@H](Nc2nc(NC3CCN(S(=O)(=O)c4ccc(F)cc4)CC3)c3ncn(C4CCCC4)c3n2)CC1 [Compound 106, trans-N^2-(4-Amino-cyclohexyl)-9-cyclopentyl-N^6-[1-(4-fluoro-benzenesulfonyl)-piperidin-4-yl]-9H-purine-2,6-diamine dihydrochloride]
- Mean Red Blood Cell to Plasma Ratio ([1]; hematocrit 0.41): 3.0
- Mean Conc. in plasma [2, 5]: BLQ^a
- Mean Conc. in plasma [2, 6]: BLQ
- Mean Red Blood Cell to Plasma Ratio [3]: 3.9

Compound: Cl.Cl.N#Cc1ccc(S(=O)(=O)N2CCC(Nc3nc(N[C@H]4CC[C@H](N)CC4)nc4c3ncn4C3CCCC3)CC2)cc1 [Compound 109, trans-N^2-(4-Amino-cyclohexyl)-9-cyclopentyl-N^6-[1-(4-cyano-benzenesulfonyl)-piperidin-4-yl]-9H-purine-2,6-diamine dihydrochloride]
- Mean Red Blood Cell to Plasma Ratio ([1]; hematocrit 0.41): 2.4
- Mean concentration in plasma [2, 7]: BLQ
- Mean Red Blood Cell to Plasma Ratio [3]: 5.0

Compound: Cl.Cl.N[C@H]1CC[C@H](Nc2nc(NC3CCN(S(=O)(=O)c4cccc(C(F)(F)F)c4)CC3)c3ncn(C4CCCC4)c3n2)CC1 [Compound 112, trans-N^2-(4-Amino-cyclohexyl)-9-cyclopentyl-N^6-[1-(3-trifluoromethyl-benzenesulfonyl)-piperidin-4-yl]-9H-purine-2,6-diamine dihydrochloride]
- Mean Red Blood Cell to Plasma Ratio ([1]; hematocrit 0.41): 2.4
- Mean Conc. in plasma [2, 4]: BLQ
- Mean Red Blood Cell to Plasma Ratio [3]: 3.7

Compound: Cl.Cl.N[C@H]1CC[C@H](Nc2nc(NC3CCN(C(=O)Oc4ccc(Cl)cc4)CC3)c3ncn(C4CCCC4)c3n2)CC1 [Compound 88, trans-4-[2-(4-Amino-cyclohexylamino)-9-cyclopentyl-9H-purin-6-ylamino]-piperidine-1-carboxylic acid 4-chloro-phenyl ester dihydrochloride]
- Mean Red Blood Cell to Plasma Ratio ([1]; hematocrit 0.41): 3.5
- Mean Conc. in plasma ([2]; Cassette #3, single 15 mg/kg iv cassette dose (3 mg/kg/compound), 0.083 h): 1483.3 ± 272.5 ng/mL
- Mean Conc. in plasma ([2]; Cassette #3, single 15 mg/kg iv cassette dose (3 mg/kg/compound), 0.25 h): 420.9 ± 49.9 ng/mL
- Mean Conc. in plasma ([2]; Cassette #3, single 15 mg/kg iv cassette dose (3 mg/kg/compound), 0.5 h): 150.2 ± 5.9 ng/mL
- Mean Conc. in plasma ([2]; Cassette #3, single 15 mg/kg iv cassette dose (3 mg/kg/compound), 1 h): 74.6 ± 16.1 ng/mL
- Mean Conc. in plasma ([2]; Cassette #3, single 15 mg/kg iv cassette dose (3 mg/kg/compound), 3 h): 24.8 ± 7.4 ng/mL
- Mean Conc. in plasma ([2]; Cassette #3, single 15 mg/kg iv cassette dose (3 mg/kg/compound), 6 h): 8.9 ± 1.6 ng/mL
- Mean Conc. in plasma ([2]; Cassette #3, single 15 mg/kg iv cassette dose (3 mg/kg/compound), 8 h): 5.4 ± 2.0 ng/mL
- Mean Conc. in plasma [2, 4]: BLQ
- Mean Red Blood Cell to Plasma Ratio [3]: 2.6

Compound: Cl.Cl.N[C@H]1CC[C@H](Nc2nc(NC3CCN(C(=O)Oc4ccc([N+](=O)[O-])cc4)CC3)c3ncn(C4CCCC4)c3n2)CC1 [Compound 89, trans-4-[2-(4-Amino-cyclohexylamino)-9-cyclopentyl-9H-purin-6-ylamino]-piperidine-1-carboxylic acid 4-nitro-phenyl ester dihydrochloride]
- Mean Red Blood Cell to Plasma Ratio ([1]; hematocrit 0.41): 4.7
- Mean Conc. in plasma ([2]; Cassette #4, single 15 mg/kg iv cassette dose (3 mg/kg/compound), 0.083 h): 642.0 ± 49.5 ng/mL
- Mean Conc. in plasma ([2]; Cassette #4, single 15 mg/kg iv cassette dose (3 mg/kg/compound), 0.25 h): 303.3 ± 34.3 ng/mL
- Mean Conc. in plasma ([2]; Cassette #4, single 15 mg/kg iv cassette dose (3 mg/kg/compound), 0.5 h): 142.4 ± 2.7 ng/mL
- Mean Conc. in plasma ([2]; Cassette #4, single 15 mg/kg iv cassette dose (3 mg/kg/compound), 1 h): 52.4 ± 4.2 ng/mL
- Mean Conc. in plasma ([2]; Cassette #4, single 15 mg/kg iv cassette dose (3 mg/kg/compound), 3 h): 17.0 ± 4.7 ng/mL
- Mean Conc. in plasma ([2]; Cassette #4, single 15 mg/kg iv cassette dose (3 mg/kg/compound), 6 h): 3.7 ± 1.0 ng/mL
- Mean Conc. in plasma [2, 5]: 3.8 ± 0.5 ng/mL
- Mean Conc. in plasma [2, 6]: BLQ
- Mean Red Blood Cell to Plasma Ratio [3]: 4.2

Compound: Cl.Cl.N[C@H]1CC[C@H](Nc2nc(NC3CCN(C(=O)Oc4ccc(Br)cc4)CC3)c3ncn(C4CCCC4)c3n2)CC1 [Compound 81, trans-4-[2-(4-Amino-cyclohexylamino)-9-cyclopentyl-9H-purin-6-ylamino]-piperidine-1-carboxylic acid 4-bromo-phenyl ester dihydrochloride]
- Mean Red Blood Cell to Plasma Ratio ([1]; hematocrit 0.41, dihydrochloride): 4.5 and 3.3
- Mean Conc. in plasma [2, 8]: BLQ
- Mean Red Blood Cell to Plasma Ratio [3]: 5.3

Compound: COC(=O)c1ccccc1S(=O)(=O)N1CCC(Nc2nc(N[C@H]3CC[C@H](N)CC3)nc3c2ncn3C2CCCC2)CC1.Cl.Cl [Compound 111, trans-2-{4-[2-(4-Amino-cyclohexylamino)-9-cyclopentyl-9H-purin-6-ylamino]-piperidine-1-sulfonyl}-benzoic acid methyl ester dihydrochloride]
- Mean Red Blood Cell to Plasma Ratio ([1]; hematocrit 0.41): 2.2
- Mean concentration in plasma [2, 7]: BLQ
- Mean Red Blood Cell to Plasma Ratio [3]: 1.2

Compound: Cl.Cl.N[C@H]1CC[C@H](Nc2nc(NC3CCN(C(=O)Oc4ccccc4)CC3)c3ncn(C4CCCC4)c3n2)CC1 [Compound 85, trans-4-[2-(4-Amino-cyclohexylamino)-9-cyclopentyl-9H-purin-6-ylamino]-piperidine-1-carboxylic acid phenyl ester dihydrochloride]
- Mean Red Blood Cell to Plasma Ratio ([1]; hematocrit 0.41): 6.1
- Mean concentration in plasma ([2]; 0.083 h): 843.3 ± 124.5 ng/mL
- Mean concentration in plasma ([2]; 0.25 h): 341.6 ± 45.1 ng/mL
- Mean concentration in plasma ([2]; 0.5 h): 163.8 ± 15.7 ng/mL
- Mean concentration in plasma ([2]; 1 h): 89.0 ± 21.5 ng/mL
- Mean concentration in plasma ([2]; 3 h): 14.3 ± 7.1 ng/mL
- Mean concentration in plasma ([2]; 6 h): 5.2 ± 1.9 ng/mL
- Mean concentration in plasma ([2]; 8 h): 3.2 ng/mL
- Mean concentration in plasma [2, 7]: BLQ
- Mean Red Blood Cell to Plasma Ratio [3]: 7.1

Compound: COc1ccc(OC(=O)N2CCC(Nc3nc(N[C@H]4CC[C@H](N)CC4)nc4c3ncn4C3CCCC3)CC2)cc1.Cl.Cl [Compound 84, trans-4-[2-(4-Amino-cyclohexylamino)-9-cyclopentyl-9H-purin-6-ylamino]-piperidine-1-carboxylic acid 4-methoxy-phenyl ester dihydrochloride]
- Mean Red Blood Cell to Plasma Ratio ([1]; hematocrit 0.41): 3.5
- Mean Conc. in plasma [2, 8]: BLQ
- Mean Red Blood Cell to Plasma Ratio [3]: 2.0
